{"source": "patent US5981578A", "about": "(priority 1997, dated 1999)", "origin": "cited, not measured here", "conditions": "in just a few days"}
{"smiles": "O=C1O[C@H]([C@@H](O)CO)C(O)=C1O", "note": "[Ascorbic acid, ascorbic acid]", "values": [{"measurement": "color development of aqueous preparations", "result": "develop colors, progressively, from light yellow to orange dark brown"}]}
